What follows are cell lines tested with CN1CCC(CC1)OC2=CC(=C(C=C2)NC3=NC=C4C(=N3)N(C(=O)N4C)C5CCCC5)OC [AZ3146] + COc1cccc2cc(-c3nc([C@H]4CC[C@H](C(=O)O)CC4)n4ncnc(N)c34)[nH]c12 [OSI-027] (partner 0.5 µM) (assay: relative viability (nuclei count vs DMSO), 5 days (fraction); higher = more cells survive). Conditions: first compound 0.08 µM.
Procedure, shortened: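 Lung cancer cell lines were pin-tool dosed in 1536-well plates on the day after seeding, with either a lone drug or a fixed anchor-drug dose plus five library-drug doses (not always all listed) in √10 steps. Nuclei were counted on 4× images after 5 days. Relative viability is the ratio of treated-well to vehicle-well nuclei counts, with each value a median of duplicate plates.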

| Cell Line | relative viability |
| --- | --- |
| NCI-H522 | 0.882 |
| NCI-H1623 | 0.39 |
| PC-14 | 0.805 |
| NCI-H1666 | 0.866 |
| EKVX | 0.72 |
| NCI-H1755 | 0.589 |
| NCI-H2023 | 0.42 |
| HCC-78 | 0.3 |
| SK-LU-1 | 0.358 |
| PC-3 [JPC-3] | 0.624 |
| LOU-NH91 | 0.726 |
| NCI-H647 | 0.55 |
| NCI-H23 | 0.621 |
| NCI-H2126 | 0.6 |
| ChaGo-K-1 | 0.572 |
| HCC-44 | 0.484 |

| Cell Line | relative viability |
| --- | --- |
| NCI-H1734 | 0.592 |
| NCI-H650 | 0.504 |
| LK-2 | 0.227 |
| NCI-H2228 | 0.484 |
| NCI-H2342 | 0.592 |
| NCI-H1944 | 0.382 |
| HARA | 0.31 |
| COR-L23 | 0.685 |
| LCLC-103H | 0.423 |
| LXF-289 | 0.775 |
| SW 900 | 0.459 |
| NCI-H1395 | 0.569 |
| NCI-H441 | 0.611 |
| NCI-H1650 | 0.474 |
| NCI-H1793 | 0.321 |
| NCI-H2170 | 0.676 |

Same assay, conditions: first compound 0.253 µM

| Cell Line | relative viability |
| --- | --- |
| NCI-H522 | 0.664 |
| NCI-H1623 | 0.482 |
| PC-14 | 0.784 |
| NCI-H1666 | 0.881 |
| EKVX | 0.653 |
| NCI-H1755 | 0.737 |
| NCI-H2023 | 0.364 |
| HCC-78 | 0.381 |
| SK-LU-1 | 0.326 |
| PC-3 [JPC-3] | 0.792 |
| LOU-NH91 | 0.61 |
| NCI-H647 | 0.656 |
| NCI-H23 | 0.699 |
| EPLC-272H | 0.277 |
| NCI-H2126 | 0.706 |
| ChaGo-K-1 | 0.611 |
| HCC-44 | 0.427 |

| Cell Line | relative viability |
| --- | --- |
| NCI-H1734 | 0.554 |
| NCI-H650 | 0.461 |
| LK-2 | 0.181 |
| NCI-H2228 | 0.579 |
| NCI-H2342 | 0.536 |
| NCI-H1944 | 0.359 |
| HARA | 0.41 |
| COR-L23 | 0.766 |
| LCLC-103H | 0.474 |
| LXF-289 | 0.704 |
| SW 900 | 0.491 |
| NCI-H1648 | 0.268 |
| NCI-H1395 | 0.533 |
| NCI-H441 | 0.656 |
| NCI-H1650 | 0.622 |
| NCI-H1793 | 0.256 |
| NCI-H2170 | 0.66 |

Same assay, conditions: first compound 0.8 µM

| Cell Line | relative viability |
| --- | --- |
| NCI-H522 | 0.527 |
| NCI-H1623 | 0.458 |
| PC-14 | 0.741 |
| NCI-H1666 | 0.922 |
| EKVX | 0.629 |
| NCI-H1755 | 0.575 |
| NCI-H2023 | 0.298 |
| HCC-78 | 0.322 |
| SK-LU-1 | 0.304 |
| PC-3 [JPC-3] | 0.789 |
| LOU-NH91 | 0.7 |
| NCI-H647 | 0.567 |
| NCI-H23 | 0.403 |
| EPLC-272H | 0.272 |
| NCI-H2126 | 0.537 |
| ChaGo-K-1 | 0.539 |
| HCC-44 | 0.416 |

| Cell Line | relative viability |
| --- | --- |
| NCI-H1734 | 0.641 |
| NCI-H650 | 0.359 |
| LK-2 | 0.146 |
| NCI-H2228 | 0.498 |
| NCI-H2342 | 0.59 |
| NCI-H1944 | 0.446 |
| HARA | 0.436 |
| COR-L23 | 0.781 |
| LCLC-103H | 0.529 |
| LXF-289 | 0.77 |
| SW 900 | 0.613 |
| NCI-H1648 | 0.233 |
| NCI-H1395 | 0.564 |
| NCI-H441 | 0.528 |
| NCI-H1650 | 0.515 |
| NCI-H1793 | 0.226 |
| NCI-H2170 | 0.66 |

Same assay, conditions: first compound 2.53 µM

| Cell Line | relative viability |
| --- | --- |
| NCI-H522 | 0.68 |
| NCI-H1623 | 0.405 |
| PC-14 | 0.853 |
| NCI-H1666 | 0.806 |
| EKVX | 0.63 |
| NCI-H1755 | 0.72 |
| NCI-H2023 | 0.362 |
| HCC-78 | 0.357 |
| SK-LU-1 | 0.342 |
| PC-3 [JPC-3] | 0.77 |
| LOU-NH91 | 0.702 |
| NCI-H647 | 0.684 |
| NCI-H23 | 0.746 |
| EPLC-272H | 0.309 |
| NCI-H2126 | 0.784 |
| ChaGo-K-1 | 0.581 |
| HCC-44 | 0.622 |

| Cell Line | relative viability |
| --- | --- |
| NCI-H1734 | 0.591 |
| NCI-H650 | 0.588 |
| LK-2 | 0.206 |
| NCI-H2228 | 0.615 |
| NCI-H2342 | 0.508 |
| NCI-H1944 | 0.464 |
| HARA | 0.582 |
| COR-L23 | 0.835 |
| LCLC-103H | 0.456 |
| LXF-289 | 0.781 |
| SW 900 | 0.549 |
| NCI-H1648 | 0.253 |
| NCI-H1395 | 0.701 |
| NCI-H441 | 0.663 |
| NCI-H1650 | 0.607 |
| NCI-H1793 | 0.329 |
| NCI-H2170 | 0.713 |

Same assay, conditions: first compound 8 µM

| Cell Line | relative viability |
| --- | --- |
| NCI-H522 | 0.759 |
| NCI-H1623 | 0.402 |
| PC-14 | 0.185 |
| NCI-H1666 | 0.839 |
| EKVX | 0.687 |
| NCI-H1755 | 0.802 |
| NCI-H2023 | 0.21 |
| HCC-78 | 0.365 |
| SK-LU-1 | 0.357 |
| PC-3 [JPC-3] | 0.776 |
| LOU-NH91 | 0.745 |
| NCI-H647 | 0.697 |
| NCI-H23 | 0.616 |
| EPLC-272H | 0.308 |
| NCI-H2126 | 0.649 |
| ChaGo-K-1 | 0.366 |
| HCC-44 | 0.558 |
| NCI-H1734 | 0.553 |
| NCI-H650 | 0.506 |
| LK-2 | 0.178 |
| NCI-H2228 | 0.429 |
| NCI-H2342 | 0.61 |
| NCI-H1944 | 0.374 |
| HARA | 0.506 |

From the supplement of paper PMC10307832
